Columns and labels:
[1] = target: T1, human Cereblon WT GST-tagged protein (Homo sapiens, UniProt Q96SW2); assay: CRBN-binding affinity, HTRF (CEREBLON BINDING kit); conditions: for inhibition at 0.5 µM: read-out: Inhibition Rate at 0.5 µM (%); for inhibition at 2 µM: read-out: Inhibition Rate at 2 µM (%)
T1 construct: purchased CISBIO 64BDCRBNPEH

GSPT1 = assay: Western blot, degradation of substrate protein in hPBMCs; format: cell-based, Human
CK1α = target: T2, CK1α (Homo sapiens, UniProt P48729+Q96SW2); assay: as above; format: cell-based
T2 construct: effects of the compounds of the present disclosure on the expression of target proteins in cells; endogenous in cells; host or cells: human PBMCs (Milecell Biotechnologies)
T2 sequence (P48729 whole entry): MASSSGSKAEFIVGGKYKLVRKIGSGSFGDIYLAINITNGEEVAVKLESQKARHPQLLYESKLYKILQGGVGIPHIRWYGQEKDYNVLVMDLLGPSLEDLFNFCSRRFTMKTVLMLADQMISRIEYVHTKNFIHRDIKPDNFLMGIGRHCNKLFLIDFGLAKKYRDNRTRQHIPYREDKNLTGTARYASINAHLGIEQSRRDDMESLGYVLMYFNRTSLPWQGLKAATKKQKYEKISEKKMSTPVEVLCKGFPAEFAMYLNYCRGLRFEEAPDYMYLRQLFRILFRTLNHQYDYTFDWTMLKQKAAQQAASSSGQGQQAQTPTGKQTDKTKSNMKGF
T2 sequence (Q96SW2 whole entry): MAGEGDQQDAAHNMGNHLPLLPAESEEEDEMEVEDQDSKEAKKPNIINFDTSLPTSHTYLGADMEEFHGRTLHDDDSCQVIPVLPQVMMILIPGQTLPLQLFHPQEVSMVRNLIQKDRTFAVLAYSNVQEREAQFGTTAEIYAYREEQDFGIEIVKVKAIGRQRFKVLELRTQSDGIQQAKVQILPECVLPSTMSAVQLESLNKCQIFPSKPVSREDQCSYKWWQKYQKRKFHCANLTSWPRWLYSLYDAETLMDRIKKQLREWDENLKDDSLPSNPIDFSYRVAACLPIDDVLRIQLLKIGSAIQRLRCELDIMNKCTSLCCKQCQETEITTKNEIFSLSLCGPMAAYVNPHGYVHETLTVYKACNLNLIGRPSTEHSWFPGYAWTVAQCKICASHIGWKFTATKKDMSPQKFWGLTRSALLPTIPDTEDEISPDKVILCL
T2 sequence (Q16531 whole entry partner): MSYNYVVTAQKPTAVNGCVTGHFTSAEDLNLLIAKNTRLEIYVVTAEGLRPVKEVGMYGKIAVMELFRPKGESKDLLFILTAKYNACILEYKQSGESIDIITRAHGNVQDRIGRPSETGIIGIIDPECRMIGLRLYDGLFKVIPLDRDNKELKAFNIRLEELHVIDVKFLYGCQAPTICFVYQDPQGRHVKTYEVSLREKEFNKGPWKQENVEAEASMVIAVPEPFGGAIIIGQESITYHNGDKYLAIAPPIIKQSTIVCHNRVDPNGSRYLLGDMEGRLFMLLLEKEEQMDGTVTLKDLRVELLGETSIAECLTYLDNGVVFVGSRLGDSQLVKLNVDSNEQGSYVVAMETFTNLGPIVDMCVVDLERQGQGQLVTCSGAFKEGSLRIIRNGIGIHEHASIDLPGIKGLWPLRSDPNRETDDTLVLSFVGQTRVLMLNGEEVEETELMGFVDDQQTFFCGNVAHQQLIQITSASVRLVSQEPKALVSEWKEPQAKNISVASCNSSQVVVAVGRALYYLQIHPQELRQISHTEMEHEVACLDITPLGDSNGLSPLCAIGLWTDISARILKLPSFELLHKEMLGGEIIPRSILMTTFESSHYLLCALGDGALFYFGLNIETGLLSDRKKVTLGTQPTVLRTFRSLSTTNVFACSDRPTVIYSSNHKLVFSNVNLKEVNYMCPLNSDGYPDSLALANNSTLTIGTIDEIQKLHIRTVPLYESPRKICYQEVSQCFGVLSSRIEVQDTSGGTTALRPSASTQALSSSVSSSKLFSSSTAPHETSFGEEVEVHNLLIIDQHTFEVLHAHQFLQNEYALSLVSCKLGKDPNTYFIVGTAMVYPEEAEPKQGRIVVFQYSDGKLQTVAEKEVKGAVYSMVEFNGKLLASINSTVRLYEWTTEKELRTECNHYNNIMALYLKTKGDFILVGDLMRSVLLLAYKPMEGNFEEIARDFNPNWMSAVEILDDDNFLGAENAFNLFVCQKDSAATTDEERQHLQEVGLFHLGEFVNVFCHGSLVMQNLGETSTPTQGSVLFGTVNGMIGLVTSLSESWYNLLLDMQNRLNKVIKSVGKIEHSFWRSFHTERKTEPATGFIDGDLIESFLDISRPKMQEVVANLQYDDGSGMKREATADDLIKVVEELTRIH

IKZF2 = target: T3, IKZF2 (Homo sapiens, UniProt Q96SW2+Q9UKS7); assay: as above; format: cell-based
T3 construct: effects of the compounds of the present disclosure on the expression of target proteins in cells; endogenous in cells; host or cells: human PBMCs (Milecell Biotechnologies)
T3 sequence (Q9UKS7 whole entry): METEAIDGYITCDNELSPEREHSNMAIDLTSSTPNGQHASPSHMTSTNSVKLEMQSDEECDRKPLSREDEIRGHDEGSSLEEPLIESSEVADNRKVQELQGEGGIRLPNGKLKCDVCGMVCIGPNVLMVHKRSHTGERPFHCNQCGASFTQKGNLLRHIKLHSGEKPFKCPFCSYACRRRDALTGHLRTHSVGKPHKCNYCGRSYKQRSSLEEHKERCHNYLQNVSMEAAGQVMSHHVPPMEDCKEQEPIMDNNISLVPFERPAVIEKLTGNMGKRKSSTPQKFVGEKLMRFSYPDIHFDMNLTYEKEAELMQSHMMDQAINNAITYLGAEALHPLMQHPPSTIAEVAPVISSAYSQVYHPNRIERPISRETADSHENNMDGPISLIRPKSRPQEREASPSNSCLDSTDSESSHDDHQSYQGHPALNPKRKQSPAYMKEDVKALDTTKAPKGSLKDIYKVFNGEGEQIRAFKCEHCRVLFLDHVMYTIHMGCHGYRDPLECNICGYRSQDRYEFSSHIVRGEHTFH
T3 sequence (Q96SW2 whole entry): as the sequence (Q96SW2 whole entry) above
T3 sequence (Q16531 whole entry partner): as the sequence (Q16531 whole entry partner) above

IKZF1 = target: T4, IKZF1 (Homo sapiens, UniProt Q13422+Q96SW2); assay: as above; format: cell-based
T4 construct: effects of the compounds of the present disclosure on the expression of target proteins in cells; endogenous in cells; host or cells: human PBMCs (Milecell Biotechnologies)
T4 sequence (Q13422 whole entry): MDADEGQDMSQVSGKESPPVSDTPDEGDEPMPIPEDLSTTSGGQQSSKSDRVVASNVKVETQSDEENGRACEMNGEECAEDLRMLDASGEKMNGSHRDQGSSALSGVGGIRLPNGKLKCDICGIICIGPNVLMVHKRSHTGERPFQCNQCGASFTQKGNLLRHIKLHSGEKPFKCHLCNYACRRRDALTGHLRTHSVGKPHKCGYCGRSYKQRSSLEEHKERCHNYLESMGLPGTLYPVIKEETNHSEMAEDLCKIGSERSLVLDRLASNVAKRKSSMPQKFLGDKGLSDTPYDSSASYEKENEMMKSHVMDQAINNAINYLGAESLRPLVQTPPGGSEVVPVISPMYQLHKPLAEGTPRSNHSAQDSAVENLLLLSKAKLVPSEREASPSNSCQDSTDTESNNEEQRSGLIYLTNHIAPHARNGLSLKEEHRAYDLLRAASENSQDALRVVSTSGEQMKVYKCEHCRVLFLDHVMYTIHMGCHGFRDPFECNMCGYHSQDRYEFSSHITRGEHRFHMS
T4 sequence (Q96SW2 whole entry): as the sequence (Q96SW2 whole entry) above
T4 sequence (Q16531 whole entry partner): as the sequence (Q16531 whole entry partner) above

WEE1 = target: T5, WEE1 (Homo sapiens, UniProt P30291+Q96SW2); assay: as above; format: cell-based
T5 construct: effects of the compounds of the present disclosure on the expression of target proteins in cells; endogenous in cells; host or cells: human PBMCs (Milecell Biotechnologies)
T5 sequence (P30291 whole entry): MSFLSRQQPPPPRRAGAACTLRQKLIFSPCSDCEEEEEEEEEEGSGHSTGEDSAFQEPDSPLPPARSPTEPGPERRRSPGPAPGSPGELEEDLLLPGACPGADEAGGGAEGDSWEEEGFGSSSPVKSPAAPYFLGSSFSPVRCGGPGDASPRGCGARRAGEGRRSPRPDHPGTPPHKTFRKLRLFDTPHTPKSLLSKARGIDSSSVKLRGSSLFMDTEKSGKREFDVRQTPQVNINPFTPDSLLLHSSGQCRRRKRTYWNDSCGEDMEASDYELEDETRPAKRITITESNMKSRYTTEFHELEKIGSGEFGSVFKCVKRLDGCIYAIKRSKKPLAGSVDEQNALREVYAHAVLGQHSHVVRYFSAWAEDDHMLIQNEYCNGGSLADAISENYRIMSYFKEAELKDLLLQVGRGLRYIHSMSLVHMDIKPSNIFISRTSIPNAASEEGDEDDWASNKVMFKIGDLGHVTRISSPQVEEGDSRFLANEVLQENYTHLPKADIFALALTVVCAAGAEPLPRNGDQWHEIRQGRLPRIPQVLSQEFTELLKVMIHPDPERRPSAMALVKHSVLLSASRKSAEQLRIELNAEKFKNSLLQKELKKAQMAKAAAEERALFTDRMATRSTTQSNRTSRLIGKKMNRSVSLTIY
T5 sequence (Q96SW2 whole entry): as the sequence (Q96SW2 whole entry) above
T5 sequence (Q16531 whole entry partner): as the sequence (Q16531 whole entry partner) above

IKZF3 = target: T6, IKZF3 (Homo sapiens, UniProt Q96SW2+Q9UKT9); assay: as above; format: cell-based
T6 construct: effects of the compounds of the present disclosure on the expression of target proteins in cells; endogenous in cells; host or cells: human PBMCs (Milecell Biotechnologies)
T6 sequence (Q9UKT9 whole entry): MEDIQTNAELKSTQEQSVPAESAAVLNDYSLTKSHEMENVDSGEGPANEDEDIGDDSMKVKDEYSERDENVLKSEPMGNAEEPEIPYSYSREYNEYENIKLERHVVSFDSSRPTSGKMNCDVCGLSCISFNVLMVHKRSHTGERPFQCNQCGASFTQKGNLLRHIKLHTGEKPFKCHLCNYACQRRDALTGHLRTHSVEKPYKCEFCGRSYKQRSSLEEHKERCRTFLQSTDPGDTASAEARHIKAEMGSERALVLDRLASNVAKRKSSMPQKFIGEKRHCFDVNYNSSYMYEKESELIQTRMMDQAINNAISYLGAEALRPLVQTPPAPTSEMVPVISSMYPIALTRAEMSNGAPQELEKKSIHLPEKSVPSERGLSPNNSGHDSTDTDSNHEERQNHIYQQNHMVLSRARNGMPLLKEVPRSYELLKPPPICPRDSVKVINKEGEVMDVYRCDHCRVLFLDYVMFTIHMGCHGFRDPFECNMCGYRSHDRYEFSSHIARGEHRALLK
T6 sequence (Q96SW2 whole entry): as the sequence (Q96SW2 whole entry) above
T6 sequence (Q16531 whole entry partner): as the sequence (Q16531 whole entry partner) above

[2] = test system: Human multiple myeloma cell (MM.1S); assay: Tumor cell proliferation inhibition (CellTiter-Meiluncell luminescent cell viability assay); conditions: for inhibition at 0.01 µM / inhibition at 0.5 µM: Homo sapiens, MM1.S, 96 h; for inhibition at 0.01 µM: read-out: Inhibition Rate at 10 nM (%); for Inhibition Rate at 500 nM (%): MM.1S, 96 hours; for inhibition at 0.5 µM: read-out: Inhibition Rate at 500 nM (%)
Description: The tumor cells used herein were cultured in a cell culture medium listed in table 2 at 37°C in an incubator with 5% CO2. Prior to experimentation, all cell lines used were correctly identified by STR profiling, and tested negative for mycoplasma contamination using a mycoplasma detection kit through routine screenings.
The IC50 values of the compounds of the present disclosure (including the compounds in Table 1 and Examples) were determined using the CellTiter-Meiluncell Luminescent Cell Viability Assay Kit from Dalian Meilun Biotech Co., Ltd. The detailed procedure is as follows: Tumor cells were seeded in 96-well cell culture plates at the densities specified in Table 3. On the following day, the test compounds of the present disclosure were subjected to serial dilution. The dilution can be performed according to one of the following two methods: • (1) The first dilution method: The test compounds of the present disclosure (including the compounds in Table 1 and Examples) were subjected to 5-fold serial dilutions starting from a highest concentration of 2000 µM, resulting in a total of 9 concentrations from high to low (2000, 400, 80, 16, 3.2, 0.64, 0.128, 0.0256, 0.00512 µM). Subsequently, 0.5 µL of the test compound dilution was transferred into the 96-well plate containing the cells, with each well containing 100 µL of cell culture medium. […] Into the 96-well plate, the diluted test compounds and corresponding detection reagents were added, resulting in final test compound concentrations of 500 nM and 10 nM, respectively. The experimental procedure is described below using the diluted 2 µM test compound as an example.
0.5 µL of the aforementioned diluted compound of the present disclosure (including the compounds in Table 1 and Examples) was added to the seeded cells in 100 µL of medium, yielding a final test compound concentration of 10 nM. After the cells were treated with the compounds of the present disclosure for a specified period, the cell viability assay reagent was added to the culture medium according to the kit's instructions to determine cell viability. […] All controls were treated using the same procedure as the compounds of the present disclosure. The growth inhibition curves for the compounds of the present disclosure were plotted using Prism GraphPad software, and the IC50 values were calculated therefrom.

[3] = Western blot, 24 hours of compound treatment, compounds tested at 50 nM and 500 nM (concentration for the table not stated)
[4] = 24 hours treatment, compounds at 50 nM and 500 nM (concentration behind the class not stated)

T1 sequence (Q96SW2 whole entry): as the sequence (Q96SW2 whole entry) above

| inhibition at 0.5 µM [1] [%] | inhibition at 2 µM [1] [%] | Compound | GSPT1 substrate protein remaining % (GSPT1; [3]) | CK1α substrate protein remaining % (CK1α; [3]) | IKZF2 substrate protein remaining % (IKZF2; [3]) | IKZF 1 substrate protein remaining % (IKZF1; [3]) | Wee1 substrate protein remaining % (WEE1; [3]) | IKZF3 substrate protein remaining % (IKZF3; [3]) | inhibition at 0.01 µM [2] [%] | Inhibition Rate at 500 nM (%) [2] | inhibition at 0.5 µM [2] [%] | GSPT1 substrate protein remaining % (GSPT1; [4]) | CK1α substrate protein remaining % (CK1α; [4]) | IKZF2 substrate protein remaining % (IKZF2; [4]) | IKZF 1 substrate protein remaining % (IKZF1; [4]) | Wee1 substrate protein remaining % (WEE1; [4]) | IKZF3 substrate protein remaining % (IKZF3; [4]) |
| --- | --- | --- | --- | --- | --- | --- | --- | --- | --- | --- | --- | --- | --- | --- | --- | --- | --- |
| 30 to 40 | 60 to 80 | O=C1CCC(N2Cc3c(CN4C[C@H]5C[C@@H]4CN5c4cccc(Cl)c4Cl)cccc3C2=S)C(=O)N1 (stereo in doubt) [GT-08467, 3-(4-(((1R,4R)-5-(2,3-dichlorophenyl)-2,5-diazabicyclo[2.2.1]heptan-2-yl)methyl)-1-thioxoisoindolin-2-yl)piperidine-2,6-dione] | A (0% ≤ substrate protein remaining % ≤ 80%) | B (80%< substrate protein remaining %≤ 100%) | A (0% ≤ substrate protein remaining % ≤ 80%) | B (80%< substrate protein remaining %≤ 100%) | B (80%< substrate protein remaining %≤ 100%) | B (80%< substrate protein remaining %≤ 100%) | 10 to 20 | la7 |  |  |  |  |  |  |  |
|  |  | O=C1CCC(N2Cc3c(CN4CCC(c5ccccc5F)CC4)cccc3C2=S)C(=O)N1 (centres unmarked) [GT-08595, 3-(4-((4-(2-fluorophenyl)piperidin-1-yl)methyl)-1-thioxoisoindolin-2-yl)piperidine-2,6-dione] | B (80%< substrate protein remaining %≤ 100%) | B (80%< substrate protein remaining %≤ 100%) | A (0% ≤ substrate protein remaining % ≤ 80%) | B (80%< substrate protein remaining %≤ 100%) | A (0% ≤ substrate protein remaining % ≤ 80%) | B (80%< substrate protein remaining %≤ 100%) | 40 to 50 |  | 50 to 60 |  |  |  |  |  |  |
|  |  | O=C1CCC(N2Cc3c(CN4CCC(c5ccc(F)cc5)CC4)cccc3C2=S)C(=O)N1 (centres unmarked) [GT-08596, 3-(4-((4-(4-fluorophenyl)piperidin-1-yl)methyl)-1-thioxoisoindolin-2-yl)piperidine-2,6-dione] | B (80%< substrate protein remaining %≤ 100%) | B (80%< substrate protein remaining %≤ 100%) | A (0% ≤ substrate protein remaining % ≤ 80%) | B (80%< substrate protein remaining %≤ 100%) | A (0% ≤ substrate protein remaining % ≤ 80%) | B (80%< substrate protein remaining %≤ 100%) | 40 to 50 |  | 50 to 60 |  |  |  |  |  |  |
| 60 to 80 | 80 to 100 | O=C1CCC(N2Cc3cc(CN4CCC(C5CCOc6cc(F)ccc65)CC4)ccc3C2=S)C(=O)N1 (centres unmarked) [GT-09274, 3-(5-((4-(7-fluorochroman-4-yl)piperidin-1-yl)methyl)-1-thioxoisoindolin-2-yl)piperidine-2,6-dione] |  |  |  |  |  |  | 30 to 40 |  | 40 to 50 |  |  |  |  |  |  |
| 60 to 80 | 80 to 100 | O=C1CCC(N2Cc3cc(CN4CCN(c5ncnc6sc(-c7ccccc7)cc56)CC4)ccc3C2=S)C(=O)N1 (centres unmarked) [GT-09296, 3-(5-((4-(6-phenylthieno[2,3-d]pyrimidin-4-yl)piperazin-1-yl)methyl)-1-thioxoisoindolin-2-yl)piperidine-2,6-dione] |  |  |  |  |  |  | 40 to 50 | la7 |  |  |  |  |  |  |  |
| 60 to 80 | 80 to 100 | O=C1CCC(N2Cc3cc(CN4CC=C(c5ncnc6scc(-c7ccccc7)c56)CC4)ccc3C2=S)C(=O)N1 (centres unmarked) [GT-09320, 3-(5-((4-(5-phenylthieno[2,3-d]pyrimidin-4-yl)-3,6-dihydropyridin-1(2H)-yl)methyl)-1-thioxoisoindolin-2-yl)piperidine-2,6-dione] |  |  |  |  |  |  |  |  |  | A (0% ≤ substrate protein remaining % ≤ 80%) | B (80%< substrate protein remaining %≤ 100%) | B (80%< substrate protein remaining %≤ 100%) | B (80%< substrate protein remaining %≤ 100%) | A (0% ≤ substrate protein remaining % ≤ 80%) | B (80%< substrate protein remaining %≤ 100%) |
| 53 to 60 | 80 to 100 | Cc1nc(C2=CCN(Cc3ccc4c(c3)CN(C3CCC(=O)NC3=O)C4=S)CC2)c2c(-c3ccccc3)csc2n1 (centres unmarked) [GT-09321, 3-(5-((4-(2-methyl-5-phenylthieno[2,3-d]pyrimidin-4-yl)-3,6-dihydropyridin-1(2H)-yl)methyl)-1-thioxoisoindolin-2-yl)piperidine-2,6-dione] |  |  |  |  |  |  |  |  |  | A (0% ≤ substrate protein remaining % ≤ 80%) | B (80%< substrate protein remaining %≤ 100%) | B (80%< substrate protein remaining %≤ 100%) | B (80%< substrate protein remaining %≤ 100%) | A (0% ≤ substrate protein remaining % ≤ 80%) | B (80%< substrate protein remaining %≤ 100%) |
| 53 to 60 | 80 to 100 | Cc1nc(C2=CCN(Cc3ccc4c(c3)CN(C3CCC(=O)NC3=O)C4=S)CC2)c2c3c(sc2n1)CCC3 (centres unmarked) [GT-09326, 3-(5-((4-(2-methyl-6,7-dihydro-5H-cyclopenta[4,5]thieno[2,3-d]pyrimidin-4-yl)-3,6-dihydropyridin-1(2H)-yl)methyl)-1-thioxoisoindolin-2-yl)piperidine-2,6-dione] |  |  |  |  |  |  |  |  |  | A (0% ≤ substrate protein remaining % ≤ 80%) | B (80%< substrate protein remaining %≤ 100%) | B (80%< substrate protein remaining %≤ 100%) | B (80%< substrate protein remaining %≤ 100%) | A (0% ≤ substrate protein remaining % ≤ 80%) | B (80%< substrate protein remaining %≤ 100%) |
| 53 to 60 | 80 to 100 | O=C1CCC(N2Cc3cc(CN4CCN(c5nc(Cl)nc6c5SCC6)CC4)ccc3C2=S)C(=O)N1 (centres unmarked) [GT-09328, 3-(5-((4-(2-chloro-6,7-dihydrothieno[3,2-d]pyrimidin-4-yl)piperazin-1-yl)methyl)-1-thioxoisoindolin-2-yl)piperidine-2,6-dione] |  |  |  |  |  |  |  |  |  | B (80%< substrate protein remaining %≤ 100%) | B (80%< substrate protein remaining %≤ 100%) | A (0% ≤ substrate protein remaining % ≤ 80%) | B (80%< substrate protein remaining %≤ 100%) | B (80%< substrate protein remaining %≤ 100%) | B (80%< substrate protein remaining %≤ 100%) |
| 60 to 80 | 80 to 100 | O=C1CCC(N2Cc3cc(CN4CCN(c5nc(N6CCOCC6)nc6ccsc56)CC4)ccc3C2=S)C(=O)N1 (centres unmarked) [GT-09333, 3-(5-((4-(2-morpholinothieno[3,2-d]pyrimidin-4-yl)piperazin-1-yl)methyl)-1-thioxoisoindolin-2-yl)piperidine-2,6-dione] |  |  |  |  |  |  |  |  |  | A (0% ≤ substrate protein remaining % ≤ 80%) | B (80%< substrate protein remaining %≤ 100%) | B (80%< substrate protein remaining %≤ 100%) | A (0% ≤ substrate protein remaining % ≤ 80%) | B (80%< substrate protein remaining %≤ 100%) | A (0% ≤ substrate protein remaining % ≤ 80%) |
| 60 to 80 | 80 to 100 | O=C1CCC(N2Cc3cc(CN4CCN(c5nc(N6CCNCC6)c6sccc6n5)CC4)ccc3C2=S)C(=O)N1 (centres unmarked) [GT-09365, 3-(5-((4-(4-(piperazin-1-yl)thieno[3,2-d]pyrimidin-2-yl)piperazin-1-yl)methyl)-1-thioxoisoindolin-2-yl)piperidine-2,6-dione] |  |  |  |  |  |  |  |  |  | A (0% ≤ substrate protein remaining % ≤ 80%) | A (0% ≤ substrate protein remaining % ≤ 80%) | B (80%< substrate protein remaining %≤ 100%) | A (0% ≤ substrate protein remaining % ≤ 80%) | B (80%< substrate protein remaining %≤ 100%) | B (80%< substrate protein remaining %≤ 100%) |

| Compound | inhibition at 0.5 µM [1] [%] | inhibition at 2 µM [1] [%] | GSPT1 substrate protein remaining % (GSPT1; [3]) | CK1α substrate protein remaining % (CK1α; [3]) | IKZF2 substrate protein remaining % (IKZF2; [3]) | IKZF 1 substrate protein remaining % (IKZF1; [3]) | Wee1 substrate protein remaining % (WEE1; [3]) | IKZF3 substrate protein remaining % (IKZF3; [3]) | inhibition at 0.01 µM [2] [%] | Inhibition Rate at 500 nM (%) [2] | inhibition at 0.5 µM [2] [%] | GSPT1 substrate protein remaining % (GSPT1; [4]) | CK1α substrate protein remaining % (CK1α; [4]) | IKZF2 substrate protein remaining % (IKZF2; [4]) | IKZF 1 substrate protein remaining % (IKZF1; [4]) | Wee1 substrate protein remaining % (WEE1; [4]) | IKZF3 substrate protein remaining % (IKZF3; [4]) |
| --- | --- | --- | --- | --- | --- | --- | --- | --- | --- | --- | --- | --- | --- | --- | --- | --- | --- |
| O=C1CCC(N2Cc3c(CN4CC=C(c5ncc6ccsc6n5)CC4)cccc3C2=S)C(=O)N1 (centres unmarked) [GT-08965, 3-(4-((4-(thieno[2,3-d]pyrimidin-2-yl)-3,6-dihydropyridin-1(2H)-yl)methyl)-1-thioxoisoindolin-2-yl)piperidine-2,6-dione] | 80 to 100 | 80 to 100 |  |  |  |  |  |  | 30 to 40 |  | 40 to 50 |  |  |  |  |  |  |

From patent publication EP4745135A1 (Gluetacs Therapeutics (Shanghai) Co., Ltd., priority 2023, dated 2025)
